# Test system: isolated rat adipocytes
# Assay: Lipogenesis assay: incorporation of 3-[3H] glucose into lipids
# Type: cell-based
# Details: 2 hours at 37°C, compared with insulin and basal (Figure 10)
# Method: The lipogenesis assay was conducted according to Smal, et al., J.Biol.Chem. 262:11071-11079 (1987). Dissected epididymal and retroperitoneal fat pads were digested under vigorous shaking at 37°C for 30 min with collagenase (1.0 mg/ml) in Krebs-Ringer-Heps (KRH) buffer, pH 7.4, 35 mg/ml dialyzed bovine serum albumin (BSA), 0.27 mM glucose. After filtration on cheesecloth and 4 washes in KRH with 10 mg/ml BSA, the adipocytes were preincubated for 4 hours at 37°C in the same buffer.
# The lipogenesis assay was performed in triplicate in 6 ml polyethylene vials by adding successively 400 µl of adipocyte suspension (80 X l0^3 cells/ml), 50 µl of KRH buffer pH 7.4 (1% BSA, 0.27 mM glucose) without hormone (basal lipogenesis) or with insulin or receptor-derived peptides at the indicated concentrations, and 50 µl D-[3-^3H]-glucose in a total volume of 0.5 ml. The vials were incubated 2 hours at 37°C under gentle shaking. […]
substance,measurement,setting,value
"insulin receptor sequence 81-91: peptide with insulin receptor sequence 81-91 (LIMITDYLLLF; UniProt P06213 81-91, looked up, fragment)",stimulation of lipogenesis,,totally inactive
same,stimulation of lipogenesis,listed as insulin receptor sequence 81 to 91,not stimulated above basal
